Data published in paper PMC6382874, “Succinylation-dependent mitochondrial translocation of PKM2 promotes cell survival in response to nutritional stress” (Cell Death & Disease, 2019).
Read-outs that look alike come from different tables or passages of the source. Peptide text beside a SMILES is read from it. * marks the point of attachment. Cbz = O=C(OCc1ccccc1)*

Columns and labels:
[1] = test system: tumor cell; settings: cited from earlier work
[2] = test system: PKM2; set-up: method as in PMID 20005212; settings: high-throughput screen; cited from earlier work
[3] = molecular target: T1, PKM1 (Homo sapiens, UniProt P14618); assay: fluorescent PK-LDH coupled assay, PKM1; type: biochemical
T1 construct: His-tag (N); made in house; host or cells: Escherichia coli BL21
Procedure: (§1) Human cDNA for PKM2, PKM1, and VDAC3 were separately cloned into a pET28a (+) and pGEX-4T-1 vector with an N-terminal His-tag and N-terminal GST-tag and purified from the Escherichia coli strain BL21 (Invitrogen) using Ni–agarose beads and GST agarose beads (Qiagen) as described previously. PKL was purchased from Sino Biological Inc. in China.
(§2) Pyruvate kinase activity was measured with a fluorescent pyruvate kinase–lactate dehydrogenase coupled assay as described previously. All compounds were tested in a kinetic mode by coupling the generation of pyruvate by pyruvate kinase to the depletion of NADH through lactate dehydrogenase. For PKM2, 40 μL of buffer (50 mM Tris–HCl, pH 7.5, 10 mM KCl, 5 mM MgCl2), 1 μL of compound and 5 μL of enzyme solution were dispensed into Corning black solid 96-well plates and incubated for 15 min. Totally, 55 μL of substrate mix (final concentration, 0.5 mM PEP, 4.0 mM ADP, 0.12 mM NADH, 0.25 mM FBP, and 1 unit LDH) were then added, and the plates were placed in a FlexStation3 (Molecular Devices), followed by determination of NADH fluorescence at 30 s exposure intervals for 3–6 min. Data were collected on a FlexStation3.

[4] = molecular target: T2, PKL (Homo sapiens, UniProt P30613); assay: fluorescent PK-LDH coupled assay, PKL; type: biochemical
T2 construct: purchased Sino Biological Inc
Procedure: as §1, §2

[5] = test system: HCT116 cells; assay: cell viability test, HCT116; type: cell-based, human; settings: Homo sapiens, HCT-116, 48 h, read-out: IC50 (HCT116)
Procedure: (§3) We assessed the anti-tumor effects of compound 8 by evaluation of cancer cell viability. Compound 8 reduced cell viability with an IC50 of about 5 µM in MTT reduction assays in HCT116, MCF7, and H1299 cells (Table 2). […] To determine whether cancer cell death brought about by compound 8 is PKM2 dependent, PKM2 was knocked down in HCT116 cells using two different shRNA sequences that specifically targeted exon 10 without interfering with PKM1 expression. Compound 8 is an inhibitor which causes a loss of function of PKM2. If PKM2 is a specially targeted by compound 8, its knockdown should render cells more vulnerable to compound 8-mediated PKM2 inhibition since shRNA and compound 8 work synergistically by reducing the intracellular drug target concentration.
(§4) Cells were seeded in 96-well plates at 5000 cells/well in DMEM media overnight. Cells were treated with different concentrations of test compound for 48 h at 37 °C in 5% CO2. Cell viability was assayed with the MTS assay (Promega) and trypan blue staining according to the manufacturer’s instructions.

[6] = molecular target: PKM2 (Homo sapiens, UniProt P14618); assay: fluorescent pyruvate kinase-lactate dehydrogenase (PK-LDH) coupled assay, PKM2; type: biochemical; set-up: His-tag (N); made in house; host or cells: Escherichia coli BL21
Procedure: A random screening of an in-house small molecule library (~1000 total molecules) was undertaken to identify new PKM2 modulators, which can block the interaction of PKM2 and VDAC3. The activity of these test compounds was assessed with a fluorescent PK-LDH coupled assay by a previously reported method (Supplementary Figure S4a)[37]. […] We undertook structural optimization by chemical modification. We designed new compounds utilizing a methyl group instead of the NP-1 chlorine moiety. Synthesis of target compounds was carried out according to the six-step protocol outlined in Supplementary Figure S4d, which was based on a previously described procedure[39],[40].
as §1, §2

[7] = test system: MCF7 cells; assay: cell viability test, MCF7; type: cell-based; settings: Homo sapiens, MCF7, 48 h, read-out: IC50 (MCF7)
Procedure: as §3, §4

[8] = test system: H1299 cells; assay: cell viability test, H1299; type: cell-based; settings: Homo sapiens, NCI-H1299, 48 h, read-out: IC50 (H1299)
Procedure: as §3, §4

[9] = test system: VDAC3; assay: VDAC3 protein level (western blot) in HCT116 cells; type: cell-based, human; settings: 10 μM, 8 h, HCT116
Description: HCT116 cell lysates were subject to immunoprecipitation with control IgG and anti-VDAC3 antibodies. d, e In vitro binding assay of purified His-tagged-PKM2 and GST-tagged-VDAC3. f K433E enhanced the interaction of PKM2 and VDAC3. Stagged-WT PKM2, a succinylation mimic K433E and a succinylation null mutant K433R and flag-VDAC3 were co-transfected into HCT116 cells for Stag bead pull down that specially pulls down Stagged proteins. g Glucose starvation enhanced the interaction of PKM2 and VDAC3. […]
Fig. 6 Compound 8 blocks PKM2 mitochondrial translocation under nutritional stress and inhibits tumor growth in vivo. a Compound 8 blocks glucose starvation induced PKM2 mitochondrial translocation. […] HCT116 cells were transfected with HA-tagged PKM2, cells were harvested and subjected to stag pull down after 8 h 20 µM compound 8 treatment. c Compound 8 induces VDAC3 for degradation. cells were harvested and evaluated VDAC3 protein levels after 8 h 10 or 20 µM compound 8 treatment. d, e Compound 8 caused a decrease in the rate of NADH oxidation. […] NAD/NADH ratios in HCT116 cell lysates were evaluated by LC–MS. f Compound 8 inhibited ATP production in HCT116 cells. g The tumor volume (n = 7) of HCT116 xenografts from mice with intraperitoneal injection of compound 8 and vehicle control […]

[10] = test system: PKM2 mitochondrial translocation; assay: PKM2 mitochondrial translocation (fractionation, western blot) in HCT116 cells; type: cell-based, human; settings: for PKM2 mitochondrial translocation: HCT116, Supplementary Figure S1a
Procedure: Fig. 6 Compound 8 blocks PKM2 mitochondrial translocation under nutritional stress and inhibits tumor growth in vivo. a Compound 8 blocks glucose starvation induced PKM2 mitochondrial translocation. Isolation of mitochondria and immunoblot of PKM2, tubulin and Tom 40 were carried out with or without compound 8 treatment. b Compound 8 disrupts interaction of PKM2 and VDAC3. HCT116 cells were transfected with HA-tagged PKM2, cells were harvested and subjected to stag pull down after 8 h 20 µM compound 8 treatment. c Compound 8 induces VDAC3 for degradation. cells were harvested and evaluated VDAC3 protein levels after 8 h 10 or 20 µM compound 8 treatment. d, e Compound 8 caused a decrease in the rate of NADH oxidation. After 8 h of treatment with 20 µM compound 8, HCT116 cells mitochondria were isolated for NADH oxidation assays. NAD/NADH ratios in HCT116 cell lysates were evaluated by LC–MS. f Compound 8 inhibited ATP production in HCT116 cells. g The tumor volume (n = 7) of HCT116 xenografts from mice with intraperitoneal injection of compound 8 and vehicle control
HCT116 cells were harvested and washed two times with cold PBS. Cells were then homogenized in a buffer (220 mM mannitol, 70 mM sucrose, 2 mM EGTA, 5 mM MOPS-Tris pH 7.4, 2 mM Taurine, 0.2% BSA). The homogenate was spun for 5 min at 800g.The supernatant containing the cytoplasmic and mitochondrial fractions were transferred to a fresh tube and spun for 5 min at 12,000g. The pellet contained the mitochondrial fraction and the supernatant contained the cytoplasmic fraction.
Cells were lysed in buffer containing 50 mM Tris pH8.0, 2 mM EDTA, 150 mM NaCl, 0.5% Nonidet P-40, 10% glycerol and protease inhibitor PMSF. Western blot analysis was carried out based on standard methods. The following commercial antibodies were used as probes: anti-Flag antibody (Sigma, F3165), anti-HA antibody (Sigma, H3663), anti-α-Tubulin (EasyBio, BE0026–100), anti-PKM2 (RuiYingBio, RLT3777), anti-TOM 40 (Santa Cruz sc-365467), anti-succinyllysine antibody (PTM BIO PTM-901), anti-GAPDH (SanJian).

[11] = test system: PKM2 succinylation; settings: 100 μM, 10 h, HCT116
Procedure: Mitochondria and nuclear fractions were prepared from HCT116 cells under glucose starvation for 10 h. Immunofluorescence analysis was carried out after 10 h of glucose starvation. […] Analysis of PKM2 succinylation in whole-cell extracts prepared from HCT116 cells treated with increasing concentrations of glucose (0, 5, and 25 mM) or SIRT5 overexpression. Lysates prepared from these cells were pulled down with Flag beads and analyzed with antibody to succinylated lysine. d Effect of glucose starvation on endogenous PKM2 succinylation in cells. Analysis of PKM2 succinylation in whole-cell extracts prepared from HCT116 cells treated with increasing concentrations of glucose (0 and 25 mM). […] HCT116 cells were transfected with expression constructs of GFP-tagged vector control GFP-SIRT5. After 10 h glucose starvation, western blot analysis of cytosolic and mitochondrial fractions was performed to evaluate translocation of PKM2 from the cytosolic compartment to the mitochondria. […] 5000 HCT116 cells stably infected with Flag-PKM2 or Flag-PKM2 K433E virus were seeded into 96-well plates and live cell counts were measured in a blood cell counting chamber with trypan blue staining.

Chain of PKM2 (Homo sapiens, UniProt P14618) (P14618 whole entry): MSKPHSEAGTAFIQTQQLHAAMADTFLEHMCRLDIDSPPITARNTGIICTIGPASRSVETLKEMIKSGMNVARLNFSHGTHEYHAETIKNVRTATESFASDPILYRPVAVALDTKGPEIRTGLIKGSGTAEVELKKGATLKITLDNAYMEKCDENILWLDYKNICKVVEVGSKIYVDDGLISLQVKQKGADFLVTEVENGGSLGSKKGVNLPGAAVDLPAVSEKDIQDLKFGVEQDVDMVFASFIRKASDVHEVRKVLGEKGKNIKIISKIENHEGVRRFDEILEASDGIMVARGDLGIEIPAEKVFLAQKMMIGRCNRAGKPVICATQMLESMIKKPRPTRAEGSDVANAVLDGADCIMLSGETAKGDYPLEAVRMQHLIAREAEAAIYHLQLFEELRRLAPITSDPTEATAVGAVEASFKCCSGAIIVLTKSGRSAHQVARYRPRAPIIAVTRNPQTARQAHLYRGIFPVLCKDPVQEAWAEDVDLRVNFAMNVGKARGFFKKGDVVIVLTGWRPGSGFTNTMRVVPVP
T2 sequence (P30613 1-543 isoform P30613-2, species assumed): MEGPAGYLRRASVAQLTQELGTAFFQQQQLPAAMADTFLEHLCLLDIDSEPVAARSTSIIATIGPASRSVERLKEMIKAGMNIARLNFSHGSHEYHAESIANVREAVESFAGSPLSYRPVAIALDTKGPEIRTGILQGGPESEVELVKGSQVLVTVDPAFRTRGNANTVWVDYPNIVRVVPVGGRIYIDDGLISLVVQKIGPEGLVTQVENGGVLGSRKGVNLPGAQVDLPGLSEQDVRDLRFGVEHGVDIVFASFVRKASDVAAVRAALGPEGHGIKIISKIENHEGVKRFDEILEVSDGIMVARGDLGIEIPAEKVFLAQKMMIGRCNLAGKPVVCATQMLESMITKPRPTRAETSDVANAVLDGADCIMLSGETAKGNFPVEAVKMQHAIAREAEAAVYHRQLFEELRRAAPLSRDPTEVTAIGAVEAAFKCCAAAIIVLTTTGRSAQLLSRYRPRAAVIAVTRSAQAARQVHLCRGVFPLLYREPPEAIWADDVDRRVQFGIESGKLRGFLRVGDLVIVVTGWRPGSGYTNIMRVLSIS
T1 sequence (P14618 1-531 isoform P14618-2): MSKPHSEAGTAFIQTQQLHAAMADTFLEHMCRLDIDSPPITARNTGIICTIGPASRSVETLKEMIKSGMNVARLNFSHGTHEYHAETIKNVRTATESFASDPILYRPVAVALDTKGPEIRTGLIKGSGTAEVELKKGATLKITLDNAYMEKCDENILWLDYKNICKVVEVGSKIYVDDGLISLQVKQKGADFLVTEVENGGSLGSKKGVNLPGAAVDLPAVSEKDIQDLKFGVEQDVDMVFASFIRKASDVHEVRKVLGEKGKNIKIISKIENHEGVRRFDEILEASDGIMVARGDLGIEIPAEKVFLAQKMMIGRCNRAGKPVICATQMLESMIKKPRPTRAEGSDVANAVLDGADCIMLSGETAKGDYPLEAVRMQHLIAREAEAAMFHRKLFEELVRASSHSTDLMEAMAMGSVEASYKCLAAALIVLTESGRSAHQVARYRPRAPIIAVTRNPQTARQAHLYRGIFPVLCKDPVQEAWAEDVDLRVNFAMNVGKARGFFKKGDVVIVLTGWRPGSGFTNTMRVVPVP

In the case of `Cc1ccc(C)n1-c1ccc(O)c(C(=O)O)c1` [Compound 3], the “suppression of tumor cell proliferation” value [1] is given as “little suppression of tumor cell proliferation below 200 µM” and the PKM2 inhibition [2] is given as “inhibits PKM2 activity at micromolar concentrations”.

Molecule `CC1=C(COP(N)(=O)N(CCCl)CCCl)C(=O)c2ccccc2C1=O` (stereo not drawn) [NP-1] has an IC50 [3] of 13.7 ± 1.14 µM, an IC50 [4] of 69.6 ± 6.26 µM and an IC50 [5] of 14.3 ± 3.57 µM. For the same molecule, the IC50 [6] was 2.93 ± 0.77 µM, the “PKM2 inhibitory activity compared with shikonin” value ([6]; Supplementary Figure S4b) was “more powerful than shikonin” and the “selectivity for PKM2 over PKM1 and PKL” value ([6]; Supplementary Figure S4c) was “highly selective, dose-dependent inhibition of PKM2 with less inhibition of PKM1 and PKL”. It also gave an IC50 [7] of 17.5 ± 6.34 µM and an IC50 [8] of 8.17 ± 1.92 µM.

With `CC(C)C[C@@H](C=O)NC(=O)[C@H](CC(C)C)NC(=O)[C@H](CC(C)C)NC(=O)OCc1ccccc1` [MG132, reference compound] (Cbz-Leu-Leu-Leu-aldehyde) the VDAC3 protein level [9] was “upregulated VDAC3”.

In the case of `CC(C)=CC[C@@H](O)C1=CC(=O)c2c(O)ccc(O)c2C1=O` [Shikonin, reference compound], the IC50 ([3]; recombinant enzyme, PK-LDH coupled assay, read-out: IC50 (PKM1)) is given as 13 ± 3.37 µM, the “induction of cell apoptosis” value [1] is given as “induces cell apoptosis at low concentrations” and the IC50 ([4]; PK-LDH coupled assay, read-out: IC50 (PKL)) is given as 39.2 ± 6.53 µM.

With “epidermal growth factor: growth factor used to stimulate HCT116 cells” the PKM2 mitochondrial translocation [10] was “did not increase PKM2 mitochondrial translocation”.

With “insulin: hormone used to stimulate HCT116 cells” the PKM2 mitochondrial translocation [10] was “did not increase PKM2 mitochondrial translocation”.

With `O=C(O)CCC(=O)O` [succinic acid, reference compound] the PKM2 succinylation [11] was “increased PKM2 succinylation” and the “mitochondrial PKM2” value ([10]; 100 μM, 10 h, HCT116) was “increased mitochondrial PKM2”.
